The record followed here is patent US9771378B2 (Denali Therapeutics, Inc., priority 2014, dated 2017).

This test relates to Aβ42 (human neuroglioma H4 cells expressing human wild type APP751). Kind of test: In vitro cell screening assay with sandwich ELISA quantification of Aβ42 peptide. It counts as cell-based. As to conditions: H4 cells stably expressing human wild type APP751; Pro293 chemically defined medium; compounds 0.003-10 μM; incubated overnight (16-18 h); supernatant Aβ42 by sandwich ELISA; normalized to DMSO and DAPT; read-out: Aβ42 H4 Prot Fre IC50. The gist of the method:
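Aβ42 in supernatants was quantified by sandwich ELISA with C-terminal-specific capture and 4G8-HRP detection, absorbance at 450 nm. Stable APP751-expressing human H4 cells received compound at 0.003-10 μM (0.33% DMSO) overnight (16-18 h). IC50 was derived from percent-of-DMSO-control data by nonlinear variable-slope fit.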
A general note: An ELISA detects its analyte on a solid surface through an enzyme-linked reagent.
Regarding `COc1ccc(C2COc3cnc(Nc4ccc(-n5cnc(C)c5)c(OC)c4)nc3N2C)c(Cl)c1` (racemic) [Example 86], the IC50 was 38 nM. Next, `COc1cc(Nc2ncc3c(n2)N2CCC[C@@]2(C)CO3)ccc1-n1cnc(C)c1` [Example 291, (S)-N-(3-methoxy-4-(4-methyl-1H-imidazol-1-yl)phenyl)-6a-methyl-6a, 7,8,9-tetrahydro-6H-pyrimido [5,4-b] pyrrolo [1,2-d] [1, 4] oxazin-2-amine]: 131 nM; `COc1nc(Nc2ncc3c(n2)N(C)C(c2cc(F)cc(F)c2)CO3)c(F)cc1-c1cnn(C)c1` (racemic) [Example 197]: more than 3000 nM; `Cc1cn(-c2ccc(Nc3ncc4c(n3)N3CCCC3CO4)cc2F)cn1` (single isomer, unassigned; (-)) [Example 289B]: 157 nM. Consider `COc1cc(Nc2ncc3c(n2)N(C)C(c2cc(F)cc(F)c2)CO3)ccc1-n1cnc(Cl)c1` (single isomer, unassigned; (+)) [Example 204B], for which the 50% inhibitory concentration (IC50) amounted to 19 nM.

As for `COc1cc(Nc2ncc3c(n2)N(C)C(C(F)(F)F)CO3)ccc1-n1cnc(C)c1` (single isomer, unassigned; (-)) [Example 187B], the IC50 was 33 nM. In the case of `COc1cc(Nc2ncc3c(n2)N(C)C2(COC2)CO3)ccc1-n1cnc(C)c1` [Example 271], the IC50 was 364 nM. Next, `COc1cc(Nc2ncc3c(n2)N(C)C(C(F)(F)F)CO3)ccc1C#N` (single isomer, unassigned; (-)) [Example 230B, (−)-2-methoxy-4-((8-methyl-7-(trifluoromethyl)-7,8-dihydro-6H-pyrimido [5,4-b] [1, 4]oxazin-2-yl)amino) benzonitrile]: 717 nM; `Cc1cn(-c2ccc(Nc3ncc4c(n3)N(C)C(c3ccc(Cl)cc3C(F)(F)F)CO4)cc2F)cn1` (single isomer, unassigned; (+)) [Example 106A]: 154 nM.

Take `Cc1cn(-c2ccc(Nc3ncc4c(n3)N(C)C(c3cc(F)cc(F)c3)CO4)cc2C(F)F)cn1` (single isomer, unassigned; (-)) [Example 222B]: the 50% inhibitory concentration (IC50) is more than 3000 nM.

Consider `COc1cc(Nc2ncc3c(n2)N(C)C(C2CCOCC2)CO3)ccc1-n1cnc(C)c1` (racemic) [Example 50], for which the IC50 is 173 nM. Then `Cc1cn(-c2ccc(Nc3ncc4c(n3)N(C)C(c3ccccc3Cl)CO4)cc2F)cn1` (single isomer, unassigned; (-)) [Example 67B], with 643 nM; and `COc1cc(Nc2ncc3c(n2)N(C)C(c2ccc(Cl)cc2Cl)CO3)ccc1-n1cnc(C)c1` (single isomer, unassigned; (-)) [Example 95A], with 116 nM; and `COc1ccc(C2COc3cnc(Nc4cnc(-n5cnc(C)c5)c(OC)c4)nc3N2C)c(Cl)c1` (single isomer, unassigned; (-)) [Example 209B], with 55 nM. Then `Cc1cc(-c2ccc(Nc3ncc4c(n3)N(C)C(c3ccc(F)cc3)CO4)cc2F)ccn1` (single isomer, unassigned; (+)) [Example 56A], with 71 nM; and `COc1cc(Nc2ncc3c(n2)N(C)C2(CC2)CO3)ccc1-c1cnn(C)c1` [Example 269], with 703 nM. Then `COc1cc(Nc2ncc3c(n2)N(C)C(c2ccc(F)cc2)CO3)ccc1-n1cnc(C)c1` (single isomer, unassigned; (+)) [Example 49B], with 9 nM; and `COc1cc(Nc2ncc3c(n2)N(C)C(c2cc(F)cc(F)c2)CO3)ccc1-c1ccnc(C)c1` (single isomer, unassigned; (-)) [Example 42B], with 801 nM.

With `COc1cc(Nc2ncc3c(n2)N(C)C(c2ccccc2Cl)CO3)ccc1-n1cnc(C)c1` (single isomer, unassigned; (+)) [Example 51B], the concentration for half-maximal inhibition (IC50) came out at 58 nM. `COc1cc(Nc2ncc3c(n2)N(C)C(C2CCC(F)(F)CC2)CO3)ccc1-n1cnc(C)c1` (single isomer, unassigned; (-)) [Example 216A]: the IC50 came out at 320 nM.

With `COC[C@H]1COc2cnc(Nc3ccc(-n4cnc(C)c4)c(F)c3)nc2N1C` [Example 113], the 50% inhibitory concentration (IC50) was found to be 331 nM.

Take `COc1ccc(C)c(C2COc3cnc(Nc4ccc(-n5cnc(C)c5)c(OC)c4)nc3N2C)c1` (single isomer, unassigned; (-)) [Example 175B]: the concentration for half-maximal inhibition (IC50) came out at 95 nM. `COc1cc(Nc2ncc3c(n2)N(C)C(C)CO3)ncc1-n1cnc(C)c1` (racemic) [Example 234]: the IC50 was found to be 1770 nM. Next, `COc1nc(Nc2ncc3c(n2)N(C)C(c2cc(F)cc(F)c2)CO3)ccc1-n1cnc(C)c1` (single isomer, unassigned; (-)) [Example 179A]: more than 3000 nM; `COC[C@@H]1COc2cnc(Nc3ccc(-n4cnc(C)c4)c(OC)c3)nc2N1C` [Example 176]: 369 nM; `COc1cc(Nc2ncc3c(n2)N(C)C(C)CO3)ccc1-n1cnc(C)c1` (single isomer, unassigned; (-)) [Example 116A]: 148 nM. For the molecule `COc1nc(Nc2ncc3c(n2)N(C)C(c2cc(F)c(F)c(F)c2)CO3)c(F)cc1-c1cnn(C)c1` (racemic) [Example 196], the 50% inhibitory concentration (IC50) was found to be 544 nM. Next, `COc1cc(Nc2ncc3c(n2)N(C)C(C2CCS(=O)(=O)CC2)CO3)ccc1-n1cnc(C)c1` (single isomer, unassigned; (-)) [Example 239A, (−)-4-(2-((3-methoxy-4-(4-methyl-1H-imidazol-1-yl)phenyl)amino)-8-methyl-7,8-dihydro-6H-pyrimido [5,4-b] [1, 4]oxazin-7-yl) tetrahydro-2H-thiopyran 1,1-dioxide]: 407 nM.

Regarding `COc1cc(Nc2ncc3c(n2)N2CCCC2CO3)ccc1-n1cnc(C)c1` (single isomer, unassigned; (-)) [Example 290A, (−)-N-(3-methoxy-4-(4-methyl-1H-imidazol-1-yl)phenyl)-6a, 7,8,9-tetrahydro-6H-pyrimido [5,4-b] pyrrolo [1,2-d] [1, 4] oxazin-2-amine], the concentration for half-maximal inhibition (IC50) is 71 nM. Next, `Cc1cn(-c2ccc(Nc3ncc4c(n3)N(C)C(c3ccc(F)cc3F)CO4)cc2F)cn1` (single isomer, unassigned; (+)) [Example 69A]: 69 nM. Next, `COc1cc(Nc2ncc3c(n2)N(C)C2(CC2)CO3)cnc1-c1cnn(C)c1` [Example 268]: 2780 nM; `COc1cc(Nc2ncc3c(n2)N(C)C2(CCOCC2)CO3)ccc1-n1cnc(C)c1` [Example 273]: 111 nM. Regarding `COc1cc(Nc2ncc3c(n2)N(C)C(Cc2ccccc2)CO3)ccc1-c1ccnc(C)c1` (single isomer, unassigned; (+)) [Example 68A], the half-maximal inhibitory concentration (IC50) was found to be 50 nM. Regarding `Cc1cc(-c2ccc(Nc3ncc4c(n3)N(C)C(c3ccccc3)CO4)cc2)ccn1` (single isomer, unassigned; (-)) [Example 24B], the half-maximal inhibitory concentration (IC50) was 1020 nM. Then `Cc1cn(-c2ccc(Nc3ncc4c(n3)N(C)C(c3ccccc3C)CO4)cc2)cn1` (single isomer, unassigned; (+)) [Example 43A], with 31 nM. Next, `COc1cc(Nc2ncc3c(n2)N(C)C(c2ccc(C(F)(F)F)cc2C(F)(F)F)CO3)ccc1-n1cnc(C)c1` (single isomer, unassigned; (+)) [Example 168B]: 76 nM. `Cc1cn(-c2ccc(Nc3ncc4c(n3)N(C)C(C)(C)CO4)nc2)cn1` [Example 262]: the IC50 was more than 3000 nM. Take `COc1cc(Nc2ncc3c(n2)N(C)C(C)(C)CO3)ccc1-c1cnn(C)c1` [Example 267]: the IC50 turned out to be 822 nM. As to `Cc1cn(-c2ccc(Nc3ncc4c(n3)N(C)C(c3ccc(F)cc3)CO4)cc2F)cn1` (single isomer, unassigned; (+)) [Example 58A], the concentration for half-maximal inhibition (IC50) was 28 nM. As for `COc1nc(Nc2ncc3c(n2)N(C)C(c2cc(F)cc(F)c2)CO3)ccc1-c1cnn(C)c1` (single isomer, unassigned; (-)) [Example 184A], the IC50 was more than 3000 nM. `COc1cc(Nc2ncc3c(n2)N(C)C(C(F)(F)F)CO3)ccc1-n1cnc(C)n1` (single isomer, unassigned; (+)) [Example 242B]: the concentration for half-maximal inhibition (IC50) was 1860 nM. On to `COc1cc(Nc2ncc3c(n2)N(C)C(C2CC(F)(F)C2)CO3)ccc1-n1cnc(C)c1` (single isomer, unassigned; (-)) [Example 212A], for which the 50% inhibitory concentration (IC50) was 348 nM. Next, `COc1cc(Nc2ncc3c(n2)N(C)C(c2ccccc2C)CO3)ccc1-n1cnc(C)c1` (single isomer, unassigned; (-)) [Example 31A]: 138 nM; `COc1cc(Nc2ncc3c(n2)N(C)C(c2cc(F)ccc2C(F)(F)F)CO3)ccc1-n1cnc(C)c1` (single isomer, unassigned; (-)) [Example 105A]: 88 nM. Consider `COc1cc(Nc2ncc3c(n2)N(C)C(C2CCC(F)(F)CC2)CO3)cnc1-n1cnc(C)c1` (single isomer, unassigned; (+)) [Example 221A], for which the IC50 stood at 24 nM.

In the case of `Cc1cc(-c2ccc(Nc3ncc4c(n3)N(C)C(c3ccc(F)cc3Cl)CO4)cc2F)ccn1` (single isomer, unassigned; (-)) [Example 102B], the half-inhibitory concentration (IC50) stood at 1350 nM. Then `COc1cc(Nc2ncc3c(n2)N(C)C(c2cc(F)cc(F)c2)CO3)cnc1-n1cnc(C)c1` (single isomer, unassigned; (-)) [Example 189B], with 655 nM. For the molecule `COc1cc(Nc2ncc3c(n2)N(C)C(C2CCC(F)(F)CC2)CO3)cnc1-c1cnn(C)c1` (single isomer, unassigned; (-)) [Example 231B], the IC50 was more than 3000 nM. `Cc1cc(-c2ccc(Nc3ncc4c(n3)N(C)C(c3ccc(F)cc3F)CO4)cc2F)ccn1` (single isomer, unassigned; (+)) [Example 66A]: the IC50 was 488 nM.

Turning to `Cc1cc(-c2ccc(Nc3ncc4c(n3)N(C)C(c3ccccc3)CO4)cc2)ccn1` (racemic) [Example 24], the 50% inhibitory concentration (IC50) is 155 nM.

Usually IC50 stands for the concentration that inhibits the measured activity by half.
